The record followed here is patent publication US12435128B2, “Method for predicting therapeutic effect of LSD1 inhibitor based on expression of INSM1” (TAIHO PHARMACEUTICAL CO., LTD., priority 2017, dated 2025).

Assay [1] concerns DMS79 cells. The experiment in a line: Cell-growth inhibitory effects of LSD1 inhibitor on non-sensitive strain DMS79. It is filed as cell-based, human. The conditions noted are these: 10 days. The protocol: (§1) As a medium, 10% FBS-containing RPMI1640 was used. Cell lines were seeded in a 96-well flat-bottom microplate in an amount of 120 μL, and a well containing 160 μL of medium alone was also prepared for background measurement. […] After culture, the microplate was allowed to stand at room temperature for 30 minutes. To 160 μL of the cell culture solution or the medium containing no cells, 140 μL of CellTiter-Glo 2.0 Assay (Promega) was added. After the microplate was allowed to stand at room temperature for 10 minutes, the luminescence intensity of viable cells in each well was measured using a microplate reader (PerkinElmer, EnSpire). The IC35 of each drug was obtained in the same manner as above.

Assay [2] deals with NCI-H1417 cells. Put plainly: Cell-growth inhibitory effects of LSD1 inhibitor on sensitive strain NCI-H1417. It is filed as cell-based, human. As to conditions: 10 days. How it is done:
as §1

In assay [3] the test system is HEL cells (human acute myelocytic leukemia cell lines). Put plainly: Cell-growth inhibition test: HEL cells. It is filed as cell-based. The conditions noted are these: read-out: IC50 (nM), Cell-Growth Inhibition Test: HEL Cells.
Assay [4] concerns NCI-H1417 cells (human small-cell lung cancer cell lines). Put plainly: Cell-growth inhibition test: NCI-H1417 cells. It is filed as cell-based. As to conditions: read-out: IC50 (nM), Cell-Growth Inhibition Test: NCI-H1417 Cells.
In assay [5] the test system is NCI-H146 cells (human small-cell lung cancer cell lines). The experiment in a line: Cell-growth inhibition test: NCI-H146 cells. In kind it is cell-based. As to conditions: NCI-H146 cells; read-out: IC50 (nM), Cell-Growth Inhibition Test: NCI-H146 Cells. The protocol:
Under the following conditions, an in vitro cell-growth inhibition test was performed with respect to HEL cells (human acute myelocytic leukemia cell lines), NCI-H1417 cells (human small-cell lung cancer cell lines), and NCI-H146 cells (human small-cell lung cancer cell lines).
The cells with the Example compound or with dimethylsulfoxide alone were cultured at 37° C. in a 5% carbon-dioxide-containing incubator for 5 days (HEL cells) or 10 days (NCI-H1417 cells and NCI-H146 cells). After culture, the plate was allowed to stand at room temperature for 30 minutes, and 100 μL of the supernatant was removed from each well to leave 100 μL of the cell culture solution. To each well containing the remaining 100 μL of the cell culture solution, the same amount of CellTiter-Glo 2.0 Assay (Promega, Cat #: G9242) was added. The microplate was shaken with a plate mixer for 1 minute and then allowed to stand in a dark place for 10 minutes. Thereafter, the luminescence intensity of viable cells in each well was measured using a microplate reader (PerkinElmer, EnSpire). […] Cell growth rate(%)=T/C×100 • T: The luminescence intensity in a well to which the test compound was added (count per second) • C: The luminescence intensity in a well to which dimethylsulfoxide alone was added (count per second)

Assay [6] has the same test system. Put plainly: Antitumor effect test using NCI-H146 cells subcutaneously implanted into mice (T/C %). In kind it is in vivo. As to conditions: NCI-H146 in BALB/cAJcl-nu/nu mice. How it is done: To 5 mice in each group, a vehicle (0.5% hydroxymethylpropylcellulose containing 0.1 N HCL) or each Example compound was orally administered. […] The major axis and the minor axis of each tumor were measured twice a week with an electric caliper to calculate the tumor volume (TV). According to the tumor volumes thus obtained, a relative tumor volume (RTV) and a relative tumor volume change (T/C (%)) were calculated. The TV, RTV, and T/C (%) were calculated using the following equations. Tumor volume TV(mm^3)=(major axis, mm)×(minor axis, mm)×(minor axis, mm)/2 Relative tumor volume RTV=TV/(TV on the grouping day) T/C(%)=(average RTV of administration group)/(average RTV of vehicle administration group)×100.
The final measurement day was the day following the final administration day.

In general, IC50 refers to the concentration that inhibits the measured activity by half.

`CCC(O)(CC)Cn1nnc2cc(-c3ccc(C(=O)N4[C@@H]5CC[C@H]4[C@@H](N)C5)cc3-c3ccc(C#N)c(F)c3)c(F)c(F)c21` (single isomer, unassigned) [Example 214]: the growth inhibitory effects result in assay [1] is “did not show growth inhibitory effects”; in assay [2], “showed growth inhibitory effects”. Further, the figures for the IC50 in assay [3], in assay [4] and in assay [5] were 0.44 nM, 0.47 nM and 2.58 nM, respectively.
For `CC(C)(O)Cn1nnc2cc(-c3ccc(CN4[C@@H]5CC[C@H]4[C@@H](N)C5)cc3-c3ccc(C#N)c(F)c3)c(F)c(F)c21.Cl.Cl` (single isomer, unassigned) [Example 285], the growth inhibitory effects entry in assay [1] is “did not show growth inhibitory effects”; in assay [2], “showed growth inhibitory effects”.
Regarding `CC(C)(O)Cc1ccc(-c2ccc(C(=O)N3[C@@H]4CC[C@H]3C[C@@H](N)C4)cc2-c2ccc(C#N)c(F)c2)c(F)c1` [Example 41, 4-[5-[(3-endo)-3-amino-8-azabicyclo[3.2.1]octane-8-carbonyl]-2-[2-fluoro-4-(2-hydroxy-2-methyl-propyl)phenyl]phenyl]-2-fluoro-benzonitrile], the growth inhibitory effects entry in assay [1] is reported as “did not show growth inhibitory effects”; in assay [2] it was “showed growth inhibitory effects”. Also, the “T/C (%)” value in assay [6] (25 mg/kg orally once a day, 21 consecutive days) amounted to 19%.
`CC(C)(O)Cn1nnc2cc(-c3ccc(C(=O)N4[C@@H]5CC[C@H]4C[C@@H](N)C5)cc3-c3ccc(C#N)c(F)c3)c(F)c(F)c21` [Example 161, 5′-((3-endo)-3-amino-8-azabicyclo[3.2.1]octane-8-carbonyl)-2′-(6,7-difluoro-1-(2-hydroxy-2-methylpropyl)-1H-benzo[d][1,2,3]triazol-5-yl)-3-fluoro-[1,1′-biphenyl]-4-carbonitrile]: the “T/C (%)” value in assay [6] (40 mg/kg orally once a day, 28 consecutive days) was 14%. For the same compound, the 50% inhibitory concentration (IC50) in assay [3] amounted to 5.68 nM.
On to `N#Cc1ccc(-c2cc(C(=O)N3C4CCC3CC(N)C4)ccc2-c2cc3nnn(CC4(O)CCC4)c3c(C#N)c2F)cc1F` (stereo not drawn) [Example 266, 5-(5-((3-endo)-3-amino-8-azabicyclo[3.2.1]octane-8-carbonyl)-4′-cyano-3′-fluoro-[1,1′-biphenyl]-2-yl)-6-fluoro-1-((1-hydroxycyclobutyl)methyl)-1H-benzo[d][1,2,3]triazole-7-carbonitrile], for which the results for the IC50 in assay [3], in assay [4] and in assay [5] were 4.63 nM, 1.85 nM and 17.5 nM, respectively.
